Test results as given in patent publication US20160250285A1, “NEUROPROTECTIVE PEPTIDES” (priority 2013, published 2016).
Where two headings read alike, the source gives them in different places. Peptide text beside a SMILES is read from it.

Tests used:
[1] = system: primary cortical neuronal cultures; conditions: for neuroprotection (neuronal viability): peptide 15 min prior to and during glutamic acid exposure, viability 24 h, MTS; for neuroprotection, milder insult: FIG. 1i, comparison at 0.5 μM and 1 μM
Experimental: Briefly, cortical tissue from E18-E19 Sprague-Dawley rats was dissociated in Dulbecco's modified Eagle medium (DMEM; Invitrogen, Australia) supplemented with 1.3 mM L-cysteine, 0.9 mM NaHCOa, 10 units/ml papain (Sigma, USA) and 50 units/ml DNase (Sigma) and washed in cold DMEM/10% horse serum. Neurons were resuspended in Neurobasal (Invitrogen) containing 2% B27 supplement (B27; Invitrogen). Before seeding, 96-well sized glass wells (6 mm diameter, ProTech, Australia) or 96-well plastic plates (ProSciTech, Australia) were coated with poly-D-lysine overnight ([…]: 50 mg/mL; 70-150 K, Sigma). […] Neurons were plated to obtain ≈10,000 viable neurons for each well on day in vitro 11-12. […] On day in vitro 4 one third of the culture medium was removed and replaced with fresh Neurobasal/2% B27 containing the mitotic inhibitor, cytosine arabinofuraNOside (1 mM final concentration; Sigma). On day in vitro 8 one half of the culture medium was replaced with Neurobasal/2% B27.
To induce excitotoxicity, 50 μl of Neurobasal/2% B27 containing glutamic acid (200 μM) or kainic acid (400 μM) or NMDA (200 μM) was added to the culture wells (100 μM glutamic acid, 200 μM kainic acid and NMDA 100 μM final concentration). Cultures were incubated at 37° C. in the CO2 incubator for 5 minutes for glutamic acid, 45 minutes for kainic acid and 10 minutes for NMDA exposure, after which time the media was replaced with 100 μl of 50% Neurobasal/2% N2 supplement (Invitrogen) and 50% balanced salt solution (BSS; see below). Cultures were incubated for a further 24 hours at 37° C. in the CO2 incubator. The untreated controls with or without glutamic acid or kainic acid treatment received the same wash steps and media additions.
Following this step, cultures were treated as described above. Untreated controls with or without glutamic acid exposure received the same wash steps and media additions. In addition, a post-glutamic acid exposure CPP treatment (5 μM) experiment was performed for the R9 peptide and the JNKI-1D-TAT control peptide.
For pre-glutamic acid exposure experiments, neurons were exposed to peptide(s) for a 10 minute period, immediately before or 1, 2, 3, 4 or 5 hours prior to glutamic acid exposure. […] At the relevant peptide pre-treatment time, media was removed and replaced with 100 μl of Neurobasal/2%. […] Following 5-minute glutamic acid exposure, neuronal culture wells were treated as described above. For all experiments untreated controls with or without glutamic acid treatment underwent the same incubation steps and media additions.
Heparin (for injection) was obtained from Pfizer (1000 IU/ml). Two different heparin experiments were performed: 1. Peptides were incubated with heparin (20 IU/ml) in Neurobasal/B27 for 5 minutes at room temperature, before addition to culture wells (50 μl) for 15 minutes at 37° C. in the CO2 incubator. Following the incubation period, media in wells was removed and replaced with 100 μl of Neurobasal/2% B27 containing glutamic acid (100 μM), and subsequently treated as described above; 2. Media in wells was replaced with Neurobasal/2% B27 containing heparin (50 μl; 40 IU/ml) and incubated for 5 minutes at 37° C. in the CO2 incubator. After the incubation period, peptides or glutamate receptor blockers (MK801/CNQX) in Neurobasal/2% B27 (50 μl) were added to the culture wells and cultures incubated for a further 10 minutes at 37° C. in the CO2 incubator. Following the incubation period, media in wells was removed and replaced with 100 μl of Neurobasal/2% B27 containing glutamic acid (100 μM), and subsequently treated as described above. For all experiments, non-heparin treated peptide controls with glutamic acid treatment underwent the same incubation steps and media additions.
Twenty-four hours after insult, neuronal cultures were examined by light microscopy for qualitative assessment of neuronal cell viability.

[2] = system: primary cortical neuronal cultures; assay: In vitro ischemia / oxygen-glucose deprivation (OGD) model, neurons; type: cell-based, rat
Experimental: Establishment of cortical cultures was as previously described (Meloni et al. 2001). Briefly, cortical tissue from E18-E19 Sprague-Dawley rats was dissociated in Dulbecco's modified Eagle medium (DMEM; Invitrogen, Australia) supplemented with 1.3 mM L-cysteine, 0.9 mM NaHCOa, 10 units/ml papain (Sigma, USA) and 50 units/ml DNase (Sigma) and washed in cold DMEM/10% horse serum. Neurons were resuspended in Neurobasal (Invitrogen) containing 2% B27 supplement (B27; Invitrogen). Before seeding, 96-well sized glass wells (6 mm diameter, ProTech, Australia) or 96-well plastic plates (ProSciTech, Australia) were coated with poly-D-lysine overnight (50 ml/well: 50 mg/mL; 70-150 K, Sigma). Excess poly-D-lysine solution was then removed and replaced with Neurobasal (containing 2% B27; 4% fetal bovine serum; 1% horse serum; 62.5 mM glutamate; 25 mM 2-mercaptoethanol; and 30 mg/mL streptomycin and 30 mg/mL penicillin). Neurons were plated to obtain ≈10,000 viable neurons for each well on day in vitro 11-12. Neuronal cultures were maintained in a CO2 incubator (5% CO2, 95% air balance, 98% humidity) at 37° C. On day in vitro 4 one third of the culture medium was removed and replaced with fresh Neurobasal/2% B27 containing the mitotic inhibitor, cytosine arabinofuraNOside (1 mM final concentration; Sigma). On day in vitro 8 one half of the culture medium was replaced with Neurobasal/2% B27. Cultures were used on day in vitro 11 or 12 after which time they routinely consist of >97% neurons and 1-3% astrocytes (Meloni et al. 2001).
The in vitro ischemia model used for primary cortical neuronal cultures was performed as previously described (Meloni et at 2011) Briefly, culture media was removed from wells (glass 96-well plate format) and washed with 315 μl of glucose free balanced salt solution (BSS; mM: 116 NaCl, 5.4 KCl, 1.8 CaCl2, 0.8 MgSO4, 1 NaH2PO4; pH 6.9) before the addition of 60 μl BSS containing cell penetrating or control peptides (see Table 1). A non-peptide positive control consisting of the glutamate receptor blockers (5 μM MK801/5 μM 6-cyano-7-nitroquinoxaline: MK801/CNQX) was also included. In vitro ischemia was initiated by placing wells in an anaerobic incubator (Don Whitely Scientific, England; atmosphere of 5% CO2, 10% H2 and 85% argon, 98% humidity) at 37° C. for 55 minutes. Upon removal from the anaerobic incubator, 60 μl of Neurobasal/2% N2 supplement was added to the wells and cultures incubated for a further 24 hours at 37° C. in the CO2 incubator. Control cultures received the same BSS wash procedures and media additions as ischemic treated cultures before incubation at 37° C. in the CO2 incubator.
Control cultures underwent the same BSS wash procedures and media additions as OGD treated cultures.
Twenty-four hours after insult, neuronal cultures were examined by light microscopy for qualitative assessment of neuronal cell viability. Neuronal viability was quantitatively measured by 3-(4,5,dimethyliazol-2-yl)-5-(3-carboxymethoxy-phenyl)-2-(4-sulfophenyl)-2H-tetrazolium salt (MTS) assay (Promega, Australia). The MTS assay measures the cellular conversion of the tetrazolium salt to a water-soluble brown formazan salt, which is detected spectrophotometrically at 490 nm. MTS absorbance data were converted to reflect proportional cell viability relative to both the untreated and treated controls, with the untreated control taken as 100% viability, and presented as mean±SEM. […] Viability data was analysed by ANOVA, followed by post-hoc Fischer's PLSD test, with P<0.05 values considered statistically significant. Four- to six wells were used in all assays.

[3] = system: intracellular calcium influx in neuronal cultures; assay: Intracellular calcium influx (Fura-2 AM) after glutamic acid; type: cell-based, rat; conditions: peptide 5 μM for 10 min, removed before 100 μM glutamic acid (FIG. 44)
Experimental: Fura-2 AM was used for intracellular calcium assessment. Representative fluorescent Fura-2 AM tracers; fluorescence intensity (FI) of neuronal cultures 30 sec before and following addition (arrow) of glutamic acid (100 μM final concentration). Peptides or glutamate receptor blockers were added to neuronal cultures for 10 min and removed (time 0) before glutamic acid. Values are mean±SE; n=3. Peptide concentration was 5 μM.
Briefly, cortical tissue from E18-E19 Sprague-Dawley rats was dissociated in Dulbecco's modified Eagle medium (DMEM; Invitrogen, Australia) supplemented with 1.3 mM L-cysteine, 0.9 mM NaHCOa, 10 units/ml papain (Sigma, USA) and 50 units/ml DNase (Sigma) and washed in cold DMEM/10% horse serum. Neurons were resuspended in Neurobasal (Invitrogen) containing 2% B27 supplement (B27; Invitrogen). Before seeding, 96-well sized glass wells (6 mm diameter, ProTech, Australia) or 96-well plastic plates (ProSciTech, Australia) were coated with poly-D-lysine overnight (50 ml/well: 50 mg/mL; 70-150 K, Sigma). Excess poly-D-lysine solution was then removed and replaced with Neurobasal (containing 2% B27; 4% fetal bovine serum; 1% horse serum; 62.5 mM glutamate; 25 mM 2-mercaptoethanol; and 30 mg/mL streptomycin and 30 mg/mL penicillin). Neurons were plated to obtain ≈10,000 viable neurons for each well on day in vitro 11-12. Neuronal cultures were maintained in a CO2 incubator (5% CO2, 95% air balance, 98% humidity) at 37° C. On day in vitro 4 one third of the culture medium was removed and replaced with fresh Neurobasal/2% B27 containing the mitotic inhibitor, cytosine arabinofuraNOside (1 mM final concentration; Sigma). On day in vitro 8 one half of the culture medium was replaced with Neurobasal/2% B27. Cultures were used on day in vitro 11 or 12 after which time they routinely consist of >97% neurons and 1-3% astrocytes (Meloni et al. 2001).

[4] = system: permanent middle cerebral artery occlusion (MCAO) stroke model; assay: Rat permanent middle cerebral artery occlusion (MCAO) stroke model; type: in vivo; conditions: 1 μmol/kg IV 30 min post-MCAO; infarct volume 24 h post-MCAO (FIGS. 5, 27)
Experimental: Administration of peptide (DR9: rrrrrrrrr-NH2; R12, R15, R18, protamine sulphate; protamine) or vehicle (saline: 0.9% NaCl) treatment solution was performed at 30 min post-MCAO. The peptide treatment comprised DR9 in saline (600 μl) to provide an intravenous loading dose of 1 μmol/kg or 1000 nmol/kg given over 5-6 min via the right jugular vein.
This study was approved by the Animal Ethics Committee of the University of Western Australia. Male Sprague Dawley rats weighing 270 g to 350 g were kept under controlled housing conditions with 12 hour light-dark cycle with free access to food and water. Experimental animals were fasted overnight and subjected to permanent middle cerebral artery occlusion (MCAO) as follows.
Anaesthesia was induced with 4% isoflurane and a 2:1 mix of N2O and O2 via mask. Anaesthesia was maintained at 1.7-2% isoflurane. Cerebral blood flow (CBF) was monitored continuously using laser Doppler flowmetry (Blood FlowMeter, AD Instruments, Sydney, Australia). The probe was located 1 mm caudal and 4 mm lateral (right) to the bregma. A cannula was inserted in the right femoral artery to continuously monitor blood pressure and to provide samples for blood glucose and blood gas readings. Blood glucose was measured using a glucometer (MediSense Products, Abbott Laboratories, Bedford, Mass., USA) and blood gases were measured using a blood gas analyser (ABL5, Radiometer, Copenhagen, Denmark). Blood pressure was maintained at 80-100 mmHg. During surgery, rectal temperature was maintained at 37±0.5° C. and warming applied with a fan heater when necessary. For intravenous infusions, a length of PVC line primed with heparinised saline was tied in place in the right jugular vein, then externalised through a dorsal mid-scapular incision to a tether/swivel system (Instech Laboratories, Philadelphia, USA) designed to permit free movement.
The right common carotid artery (CCA) was exposed via a ventral neck incision. […] The isolated section of the ECA was ligated and cauterised to create a stump. The carotid body was removed and the pterygopalatine artery was ligated. A 4-0 nylon monofilament with a 0.39 mm diameter silicone tip (Doccol, Redlands, Calif., USA) was inserted through the ECA stump into the CCA and advanced rostrally into the internal carotid artery (ICA) until the laser Doppler flowmetry recorded a >30% decrease from baseline of cerebral blood flow. The monofilament was secured in two places (at the base of the ECA stump and on the ICA) for the remainder of the experiment. Animals were given post-operative analgesia consisting of pethidine (3 mg/kg intramuscular) and bupivacaine (1.5 mg/kg subcutaneously) at head and leg incision sites.
Post-surgery animals were allowed to recover in a climate-controlled chamber and their core body temperature monitored and maintained at 37±0.5° C. by a cooling/heating fan when required for 3-4 hours.
Animals were sacrificed 24 hours post-MCAO with intra-peritoneal injections of sodium pentobarbitone (900 mg/kg). […] Slices were scanned and images were analysed by an operator blind to treatment status using ImageJ 3rd edition (NIH, USA). The total infarct volume was determined by adding the areas of infarcted tissue on both sides of the 2 mm sections. These measured areas were multiplied by half slice thickness (1 mm), and corrected for cerebral oedema by multiplying the ratio of affected to normal hemisphere areas. […]

## Ac-PLFAE-RRRRRRRRR-NH2 (Ac-PLFAERRRRRRRRR-NH2) [Cal/R9]
[1]
  neuroprotection (neuronal viability): moderate to high level neuroprotection

## PRRRRSSSRPVRRRRRPRVSRRRRRGGRRRR [Ptm3]
[1]
  neuroprotection (neuronal viability): neuroprotective

## PRRRRSSRRPVRRRRRPRVSRRRRRGGRRRR [Ptm2]
[1]
  neuroprotection (neuronal viability): neuroprotective
[2]; FIGS. 31, 20, 22, 1 μM and 5 μM in FIG. 31
  neuroprotection when added for 15 minutes after OGD: neuroprotective
[2]; discussion summary
  neuroprotection in the OGD model (overall statement): neuroprotective

## H-GRKKRRQRRR-PPRPKRPTTLNLFPQVPRSQDT-OH (H-GRKKRRQRRRPPRPKRPTTLNLFPQVPRSQDT-OH) [TAT-JNKI-1, reference compound]
[1]
  neuroprotection (neuronal viability): neuroprotective
[3]
  calcium influx after glutamic acid: to varying degrees reduced calcium influx

## H-RRRRRRRR-OH [Peptide R8]
[1]; dose response studies FIGS. 6, 7, 8
  concentration at which (significant) neuroprotection displayed: 5 µM
[1]
  neuroprotection (neuronal viability): moderate to high level neuroprotection

## H-RRRRRRRRRPGRVVGGRRRRRRRRR-OH [R9/tPA/R9]
[1]
  IC50: 0.29 µM
  neuroprotection (neuronal viability): highly effective
[1]; dose response studies, glutamate model
  order of potency: potency between R12 and R18

## N=C(N)NCCC[C@H](NC(=O)[C@H](CCCNC(=N)N)NC(=O)[C@H](CCCNC(=N)N)NC(=O)[C@H](CCCNC(=N)N)NC(=O)[C@H](CCCNC(=N)N)NC(=O)[C@@H](N)CCCNC(=N)N)C(=O)O [Peptide R6, H-RRRRRR-OH]
[1]
  IC50: > 5 µM
  neuroprotection, milder insult: ineffective

## H-AAVALLPAVLLALLAP-OH [kFGF, reference compound]
[1]
  neuroprotection (neuronal viability): ineffective

## H-RRERRRRSCAGCSRARGSCRSCRR-NH2 (cysteine pairing not given here) [NCXBP3]
[1]
  neuroprotection (neuronal viability): high levels of protection

## N=C(N)NCCC[C@H](NC(=O)[C@H](CCCNC(=N)N)NC(=O)[C@@H](N)CCCNC(=N)N)C(=O)O [Peptide R3, H-RRR-OH] (H-Arg-Arg-Arg-OH)
[1]
  IC50: > 5 µM
  neuroprotection, milder insult: ineffective
  neuroprotection (neuronal viability): no to little neuroprotection

## H-YARAAARQARA-OH [PTD-4, reference compound]
[1]
  neuroprotection (neuronal viability): little to no neuroprotective properties
[1]; listed as PTA4
  neuroprotection (neuronal viability): largely ineffective

## H-EEEEEEEEE-RRRRRRRRR-OH (H-EEEEEEEEERRRRRRRRR-OH) [E9/R9, reference compound]
[1]; listed as E91R9
  neuroprotection (neuronal viability): no protection

## H-AAVALLPAVLLALLAP-PPRPKRPTTLNLFPQVPRSQDT-OH (H-AAVALLPAVLLALLAPPPRPKRPTTLNLFPQVPRSQDT-OH) [kFGF-JNKI-1, reference compound]
[1]
  neuroprotection (neuronal viability): not neuroprotective

## H-KETWWETWWTEWSQPKKKRKV-NH2 [Pep-1, reference compound]
[2]; 24 h
  IC50: > 15 µM
[2]; FIG. 3a
  lower concentrations at which neuroprotective: 1 to 5 µM
[2]; peptide present during in vitro ischemia and at 50% dose after (FIG. 3a)
  neuroprotection: neuroprotective following in vitro ischemia at lower concentrations

## N=C(N)NCCC[C@H](N)C(=O)O [Peptide R1, H-R-OH]
[1]
  neuroprotection, milder insult: ineffective
  neuroprotection (neuronal viability): no to little neuroprotection
[1]; read-out: IC50: Glutamic acid model, Table 4, polyarginine peptides, from dose response graph FIG. 1e
  IC50: > 5 µM

## GRKKRRQRRRG [TAT, the TAT peptide, reference compound]
[1]; 15 min incubation, wash-out before insult (FIG. 1c)
  neuroprotection when peptide washed-out prior to glutamic acid exposure: loss of efficacy
[3]
  calcium influx after glutamic acid: to varying degrees reduced calcium influx

## H-rrrrrrrrr-NH2 [D-R9]
[1]; heparin 20 IU/ml with peptide or 40 IU/ml on cultures (FIGS. 39, 40)
  effect of heparin on neuroprotective action: blocks neuroprotective actions
[4]
  reduction of infarct volume (brain damage): approximately 20%
[3]
  calcium influx after glutamic acid: to varying degrees reduced calcium influx
